Assay results from PubChem BioAssay (NCI).
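Values below derive from 48-hour exposures of cells grown in 96-well plates, with endpoints linearly interpolated between the two concentrations bracketing the appropriate inhibition level. GI50 marks 50% less growth. TGI: total growth inhibition.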

Experiments:
Assay in all cases: NCI anticancer screen, dose series, 48 h
786-0 renal = test system: 786-0 renal
CAKI-1 renal = test system: CAKI-1 renal
CCRF-CEM leukemia = test system: CCRF-CEM leukemia
HCT-116 colon = test system: HCT-116 colon
HOP-92 NSCLC = test system: HOP-92 NSCLC
HT29 colon = test system: HT29 colon
KM12 colon = test system: KM12 colon
NCI-H460 lung = test system: NCI-H460 lung
OVCAR-3 ovarian = test system: OVCAR-3 ovarian
U251 CNS = test system: U251 CNS

Structure (SMILES) | TGI (786-0 renal) | TGI (CAKI-1 renal) | TGI (CCRF-CEM leukemia) | TGI (HCT-116 colon) | TGI (HOP-92 NSCLC) | TGI (HT29 colon) | TGI (KM12 colon) | TGI (NCI-H460 lung) | TGI (OVCAR-3 ovarian) | TGI (U251 CNS) | GI50 (786-0 renal) | GI50 (CCRF-CEM leukemia) | GI50 (HOP-92 NSCLC) | GI50 (KM12 colon) | GI50 (CAKI-1 renal) | GI50 (HCT-116 colon) | GI50 (HT29 colon) | GI50 (NCI-H460 lung) | GI50 (OVCAR-3 ovarian) | GI50 (U251 CNS)
COc1cc(Br)c(C=Nc2cccc3ccc(OS(=O)(=O)c4cccc([N+](=O)[O-])c4)cc23)cc1OC | > 100 µM | > 100 µM | > 100 µM | > 100 µM | 35.3 µM | > 100 µM | > 100 µM | > 100 µM | > 100 µM | > 100 µM | – | – | – | – | – | – | – | – | – | –
N.N.N.N.N.N.O=N[O-].[Br-].[Co+3].[Co+3].[OH3+].[OH3+] | > 100 µM | – | > 100 µM | – | > 100 µM | – | > 100 µM | – | – | – | > 100 µM | > 100 µM | > 100 µM | > 100 µM | – | – | – | – | – | –
Cc1nn(-c2ccccc2)c(-c2ccccc2[N+](=O)[O-])c1CC#N | > 100 µM | > 100 µM | > 100 µM | – | > 100 µM | – | > 100 µM | > 100 µM | > 100 µM | – | – | – | – | – | – | – | – | – | – | –
O=C1CC(=O)OC(c2ccc([N+](=O)[O-])cc2)O1 | 3.36 µM | 3.24 µM | 8.79 µM | 3.12 µM | 3.71 µM | 3.73 µM | 4.03 µM | 5.9 µM | 3.37 µM | 3.11 µM | 1.81 µM | 2.45 µM | 0.23 µM | 1.95 µM | 1.44 µM | 1.61 µM | 1.9 µM | 2.4 µM | 1.77 µM | 1.61 µM
COC(=O)CCC1=C(C)/C(=C/c2[nH]c(-c3ccc[nH]3)cc2OC)N=C1C | 3.72 µM | 3.15 µM | 6.5 µM | 1.41 µM | 0.571 µM | 2.03 µM | 2.39 µM | 4.88 µM | 1.7 µM | 2.43 µM | 0.653 µM | 0.306 µM | 0.191 µM | 0.389 µM | 0.346 µM | 0.331 µM | 0.267 µM | 0.441 µM | 0.397 µM | 0.343 µM
N#C[C@@H]1C(n2ccc(N)nc2=O)O[C@H](CO)[C@H]1O (stereo partly drawn) | > 100 µM | > 100 µM | > 100 µM | > 100 µM | > 100 µM | > 100 µM | > 100 µM | > 100 µM | > 100 µM | > 100 µM | 13.2 µM | 0.135 µM | 7.66 µM | > 100 µM | 3.49 µM | 2.66 µM | > 85 µM | 0.693 µM | > 100 µM | 42.7 µM
COc1ccc2c(c1)[n+]([O-])c(/C(C)=N/NC(=O)CC#N)c[n+]2[O-] | > 100 µM | > 100 µM | > 100 µM | > 100 µM | > 100 µM | > 100 µM | > 100 µM | > 100 µM | > 100 µM | > 100 µM | – | – | – | – | – | – | – | – | – | –
COc1ccc(Cn2c(Cl)c(/C=C3/C(=O)Nc4ccccc43)c3cc(OC)c(C)cc32)cc1 | 31.7 µM | > 100 µM | > 100 µM | 39.1 µM | > 100 µM | > 100 µM | 23.8 µM | > 100 µM | 5.37 µM | > 100 µM | 3.92 µM | 4.94 µM | 53.8 µM | 3.99 µM | 5.81 µM | 3.77 µM | 4.1 µM | 5.03 µM | 2.3 µM | 6.05 µM
Fc1cccc(Cl)c1/C=N\N=C1c2ccccc2-c2ccccc21 | > 100 µM | > 100 µM | > 100 µM | > 100 µM | > 100 µM | > 100 µM | > 100 µM | > 100 µM | > 100 µM | > 100 µM | – | – | – | – | – | – | – | – | – | –
O=C(O)CSc1ncccc1[N+](=O)[O-] | > 100 µM | > 100 µM | > 100 µM | > 100 µM | > 100 µM | > 100 µM | > 100 µM | > 100 µM | > 100 µM | > 100 µM | – | – | – | – | – | – | – | – | – | –
CC1CCN(CC(=O)N2c3ccccc3Sc3cc4ccccc4cc32)CC1 | > 100 µM | > 100 µM | > 100 µM | > 100 µM | > 100 µM | > 100 µM | > 100 µM | > 100 µM | > 100 µM | > 100 µM | – | – | – | – | – | – | – | – | – | –
Nc1nc(CCC(=O)Nc2cccc(C(F)(F)F)c2)cc(-c2ccc3ccccc3c2)n1 | > 100 µM | > 100 µM | > 100 µM | > 100 µM | > 100 µM | > 100 µM | > 100 µM | > 100 µM | > 100 µM | > 100 µM | – | – | – | – | – | – | – | – | – | –
Cc1ccc(SC(=O)N2C(=S)NC(=NC3CCCCC3)C23CCCCC3)cc1 | > 100 µM | > 100 µM | > 100 µM | > 100 µM | > 100 µM | > 100 µM | > 100 µM | > 100 µM | > 100 µM | > 100 µM | – | – | – | – | – | – | – | – | – | –
S=c1nc(-c2cccnc2)[nH][nH]1 | > 100 µM | > 1 µM | > 100 µM | > 100 µM | > 100 µM | > 100 µM | > 100 µM | > 100 µM | – | > 100 µM | – | – | – | – | – | – | – | – | – | –
FCc1ncc(-c2ccc(C(F)(F)F)cc2)c(NC2CCCCCC2)n1 | > 10 µM | > 10 µM | > 10 µM | > 10 µM | > 10 µM | > 10 µM | > 10 µM | > 10 µM | > 10 µM | > 10 µM | > 10 µM | > 10 µM | 5.29 µM | > 10 µM | > 10 µM | > 10 µM | > 10 µM | > 10 µM | > 10 µM | > 10 µM
CCOC(=O)[C@H]1Nc2ccc(OC)cc2C2c3ccccc3CC21 (stereo partly drawn) | > 100 µM | > 100 µM | – | > 100 µM | – | > 100 µM | > 100 µM | > 100 µM | > 100 µM | > 100 µM | – | – | – | – | – | – | – | – | – | –
CCC(c1cccc(O)c1)C(CC)c1cccc(O)c1 (stereo not drawn) | 18.3 µM | 33 µM | – | 14.5 µM | – | 11.2 µM | 13.6 µM | 12.8 µM | 19 µM | 14.7 µM | 5.68 µM | – | – | 3.03 µM | 11.9 µM | 3.66 µM | 1.86 µM | 2.98 µM | 6.2 µM | 3.63 µM
